According to the supplement of paper PMC10307832:

Legend:
Experiment in all cases: relative viability (nuclei count vs DMSO), 5 days (fraction); higher = more cells survive
IU1-47 + Palbociclib = compound: CC1=CC(=C(N1C2=CC=C(C=C2)Cl)C)C(=O)CN3CCCCC3 [IU1-47] + CC(=O)c1c(C)c2cnc(Nc3ccc(N4CCNCC4)cn3)nc2n(C2CCCC2)c1=O [Palbociclib] (partner 0.5 µM)
Summary of the method: (§1)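 A single step with final 0.05% Triton X-100, 1% formaldehyde and 1 ug/ml Hoechst fixed the cells and stained nuclei 5 days after treatment. Lung cancer cell lines in 1536-well plates had been treated by pin tool the day after seeding with one drug alone or a fixed anchor-drug dose plus five library-drug doses (not always all listed) in √10 steps, and nuclei were counted on 4× images. Relative viability is the ratio of nuclei in treated wells to nuclei in vehicle wells, taken as the median of duplicate plates.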

IU1-47 + Luminespib = compound: CC1=CC(=C(N1C2=CC=C(C=C2)Cl)C)C(=O)CN3CCCCC3 [IU1-47] + CCNC(=O)c1noc(-c2cc(C(C)C)c(O)cc2O)c1-c1ccc(CN2CCOCC2)cc1 [Luminespib] (partner 0.01 µM)
Summary of the method: as §1

IU1-47 + AZD7762 = compound: CC1=CC(=C(N1C2=CC=C(C=C2)Cl)C)C(=O)CN3CCCCC3 [IU1-47] + NC(=O)Nc1cc(-c2cccc(F)c2)sc1C(=O)N[C@H]1CCCNC1 [AZD7762] (partner 0.2 µM)
Summary of the method: as §1

FG-4592 + Palbociclib = compound: Cc1nc(C(=O)NCC(=O)O)c(O)c2ccc(Oc3ccccc3)cc12 [FG-4592] + CC(=O)c1c(C)c2cnc(Nc3ccc(N4CCNCC4)cn3)nc2n(C2CCCC2)c1=O [Palbociclib] (partner 0.5 µM)
Summary of the method: as §1

Cell Line	relative viability (IU1-47 + Palbociclib; first compound 0.08 µM)	relative viability (IU1-47 + Palbociclib; first compound 0.253 µM)	relative viability (IU1-47 + Palbociclib; first compound 0.8 µM)	relative viability (IU1-47 + Palbociclib; first compound 2.53 µM)	relative viability (IU1-47 + Palbociclib; first compound 8 µM)	relative viability (IU1-47 + Luminespib; first compound 0.08 µM)	relative viability (IU1-47 + Luminespib; first compound 0.253 µM)	relative viability (IU1-47 + Luminespib; first compound 0.8 µM)	relative viability (IU1-47 + Luminespib; first compound 2.53 µM)	relative viability (IU1-47 + Luminespib; first compound 8 µM)	relative viability (IU1-47 + AZD7762; first compound 0.08 µM)	relative viability (IU1-47 + AZD7762; first compound 0.253 µM)	relative viability (IU1-47 + AZD7762; first compound 0.8 µM)	relative viability (IU1-47 + AZD7762; first compound 2.53 µM)	relative viability (IU1-47 + AZD7762; first compound 8 µM)	relative viability (FG-4592 + Palbociclib; first compound 0.08 µM)	relative viability (FG-4592 + Palbociclib; first compound 0.253 µM)	relative viability (FG-4592 + Palbociclib; first compound 0.8 µM)	relative viability (FG-4592 + Palbociclib; first compound 2.53 µM)	relative viability (FG-4592 + Palbociclib; first compound 8 µM)
HCC-44	1.02	0.95	0.996	0.993	1.01	1.17	1.03	1.11	0.987	1.21	1	1.07	1.04	0.959	1.04	0.923	0.954	0.91	0.943	0.97
HCC-827	0.553	0.497	0.534	0.551	0.535	0.819	0.588	0.818	0.573	0.648	0.174	0.213	0.227	0.202	0.197	0.438	0.417	0.402	0.507	0.467
NCI-H1623						0.602	0.611	0.519	0.456	0.661										
NCI-H2347	0.39	0.474	0.436	0.43	0.438	0.233	0.363	0.642	0.513	0.32	0.78	0.845	0.865	0.79	0.621	0.421	0.433	0.41	0.454	0.407
PC-14	0.547	0.69	0.635	0.675	0.419	0.185	0.168	0.186	0.151	0.179	0.404	0.345	0.377	0.314	0.275	0.545	0.415	0.571	0.486	0.488
NCI-H1651	0.525	0.539	0.495	0.523	0.523	0.876	0.85	0.924	0.974	0.819	0.479	0.498	0.529	0.316	0.418	0.522	0.488	0.488	0.518	0.458
HARA	0.231	0.316	0.239		0.221	0.858	0.98	1.66		0.49	0.394		0.359	0.176	0.273	0.276	0.191	0.261	0.286	0.25
NCI-H1650	0.322	0.313	0.27	0.317	0.287	0.169	0.201	0.18	0.175	0.221						0.259	0.292	0.304	0.346	0.332
NCI-H1395	0.58	0.569	0.631	0.655	0.567	0.678	0.715	0.547	0.597	0.813	0.422	0.336	0.414	0.384	0.392	0.585	0.615	0.597	0.688	0.485
